# Test results from patent publication US10723741B1, “DNA polymerase IIIC inhibitors and use thereof” (Acurx Pharmaceuticals, LLC, priority 2018, dated 2020).
# Where two headings read alike, the source gives them in different places.
# Columns and labels:
# Type in all cases: cell-based
# [1] = tested on: Enterococcus faecium ATCC 700221 (VRE); test: Broth microdilution MIC, E. faecium ATCC 700221 (VRE); design: MIC E. faecium ATCC 700221 (VRE): unit: ug/mL; settings: broth microdilution, 37° C., 20 hours; for MIC: Enterococcus faecium, read-out: MIC E. faecium ATCC 700221 (VRE)
# Outline: (§1)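 Broth microdilution in strain-specific test medium with ~5.0×10^5 cfu/ml inoculum, 1% DMSO and two-fold compound dilutions from 64 to 0.0625 μg/ml. Plates were held 20 hours at 37° C in ambient air. S. pneumoniae colonies were grown beforehand on blood agar in 5% CO2.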
# [2] = tested on: Streptococcus pneumoniae ATCC 49619; test: Broth microdilution MIC, S. pneumoniae ATCC 49619; settings: ATCC49619, broth microdilution, 37° C., 20 hours, read-out: MIC S. pneumoniae ATCC 49619
# Outline: as §1
# [3] = tested on: Staphylococcus aureus NRS384 (MRSA); test: Broth microdilution MIC, S. aureus NRS384 (MRSA); design: MIC NRS 384 (MRSA): unit not given here; settings: broth microdilution, 37° C., 20 hours; for MIC: Staphylococcus aureus, read-out: MIC NRS 384 (MRSA)
# Outline: as §1
# [4] = tested on: Escherichia coli ATCC 25922; test: Broth microdilution MIC, E. coli ATCC 25922 (MHIIB w & w/o 4 mM EDTA); settings: broth microdilution, 37° C., 20 hours; for MIC: Escherichia coli, ATCC25922, without EDTA, read-out: MIC E. coli ATCC 25922; for MIC E. coli ATCC 25922 + 4 mM EDTA: with 4 mM EDTA
# Outline: as §1
# [5] = tested on: Staphylococcus aureus ATCC 29213 (MSSA); test: Broth microdilution MIC, S. aureus ATCC 29213 (MSSA); settings: broth microdilution, 37° C., 20 hours, read-out: MIC S. aureus ATCC 29213 (MSSA)
# Outline: as §1
# [6] = tested on: Enterococcus faecalis ATCC 29212; test: Broth microdilution MIC, E. faecalis ATCC 29212; settings: ATCC29212, broth microdilution, 37° C., 20 hours, read-out: MIC E. faecalis ATCC 29212
# Outline: as §1
# [7] = tested on: Bacillus subtilis ATCC 6633; test: Broth microdilution MIC, B. subtilis ATCC 6633; settings: ATCC6633, broth microdilution, 37° C., 20 hours, read-out: MIC B. subtilis ATCC 6633
# Outline: as §1
SMILES,MIC [1],MIC [2],MIC [3],MIC [4],MIC E. coli ATCC 25922 + 4 mM EDTA [4],MIC [5],MIC [6],MIC [7],MIC ([3]; S. aureus NRS 384),MIC E. faecium ATCC 700221 (VRE) [1],MIC NRS 384 (MRSA) [3]
"Cl.N=C(N)NCCn1ncc2nc(NCc3ccc(Cl)c(Cl)c3)[nH]c(=O)c21 [Compound 292, 1-(2-(5-((3,4-dichlorobenzyl)amino)-7-oxo-6,7-dihydro-1H-pyrazolo[4,3-d]pyrimidin-1-yl)ethyl)guanidine hydrochloride]",64 µg/mL,64 µg/mL,16 µg/mL,> 64 µg/mL,>64 µg/mL,16 µg/mL,64 µg/mL,16 µg/mL,,,
"O=c1[nH]c(NCc2ccc(F)c(F)c2)nc2c(F)nn(Cc3cocn3)c12 [Compound 316, 5-((3,4-Difluorobenzyl)amino)-3-fluoro-1-(oxazol-4-ylmethyl)-1H-pyrazolo[4,3-d]pyrimidin-7(6H)-one]",4 µg/mL,2 µg/mL,,> 64 µg/mL,>64 µg/mL,4 µg/mL,8 µg/mL,2 µg/mL,2 µg/mL,,
"Cl.O=c1[nH]c(NCc2ccc(Cl)c(Cl)c2)nc2cnn(CC3(CO)CCNCC3)c12 [Compound 195, 5-((3,4-dichlorobenzyl)amino)-1-((4-(hydroxymethyl)piperidin-4-yl)methyl)-1H-pyrazolo[4,3-d]pyrimidin-7(6H)-one hydrochloride]",64 µg/mL,16 µg/mL,> 64 µg/mL,> 64 µg/mL,>64 µg/mL,> 64 µg/mL,64 µg/mL,8 µg/mL,,,
"Cn1ncc2nc(NCc3ccccn3)[nH]c(=O)c21 [Compound 4, 1-Methyl-5-((pyridin-2-ylmethyl)amino)-1H-pyrazolo[4,3-d]pyrimidin-7(6H)-one]",> 64 µg/mL,> 64 µg/mL,> 64 µg/mL,> 64 µg/mL,>64 µg/mL,> 64 µg/mL,> 64 µg/mL,> 64 µg/mL,,,
"Cl.O=c1[nH]c(NCc2ccc(Cl)c(Cl)c2)nc2cnn(Cc3cccnc3)c12 [Compound 113, 5-[(3,4-Dichlorophenyl)methylamino]-1-(3-pyridylmethyl)-6H-pyrazolo[4,3-d]pyrimidin-7-one]",,8 µg/mL,,> 64 µg/mL,>64 µg/mL,4 µg/mL,8 µg/mL,1 µg/mL,,2/2,4/4
"Cl.O=C(c1cccnc1)N1CCC(n2ncc3nc(NCc4ccc(Cl)c(Cl)c4)[nH]c(=O)c32)CC1 [Compound 256, 5-((3,4-Dichlorobenzyl)amino)-1-(1-nicotinoylpiperidin-4-yl)-1H-pyrazolo[4,3-d]pyrimidin-7(6H)-one hydrochloride]",2 µg/mL,4 µg/mL,4 µg/mL,> 64 µg/mL,>64 µg/mL,8 µg/mL,4 µg/mL,2 µg/mL,,,
"[2H]C([2H])(O)COCCn1ncc2nc(NCc3ccc(Cl)c(Cl)c3)[nH]c(=O)c21 [Compound 286, 5-[(3,4-dichlorophenyl)methylamino]-1-[2-(2,2-dideuterio-2-hydroxyl-ethoxy)ethyl]-6H-pyrazolo[4,3-d]pyrimidin-7-one]",2 µg/mL,4 µg/mL,8 µg/mL,> 64 µg/mL,>64 µg/mL,8 µg/mL,4 µg/mL,4 µg/mL,,,
"Cl.O=C(c1ncc[nH]1)N1CCC(n2ncc3nc(NCc4ccc(Cl)c(Cl)c4)[nH]c(=O)c32)CC1 [Compound 269, 1-(1-(1H-imidazole-2-carbonyl)piperidin-4-yl)-5-((3,4-dichlorobenzyl)amino)-1H-pyrazolo[4,3-d]pyrimidin-7(6H)-one hydrochloride]",2 µg/mL,4 µg/mL,4 µg/mL,> 64 µg/mL,>64 µg/mL,4 µg/mL,4 µg/mL,1 µg/mL,,,
"CN(C)CC(O)C(O)C(=O)N1CCC(n2ncc3nc(NCc4ccc(Cl)c(Cl)c4)[nH]c(=O)c32)CC1.Cl (centres unmarked) [Compound 277, 5-((3,4-dichlorobenzyl)amino)-1-(1-(4-(dimethylamino)-2,3-dihydroxybutanoyl)piperidin-4-yl)-1H-pyrazolo[4,3-d]pyrimidin-7(6H)-one hydrochloride]",32 µg/mL,16 µg/mL,64 µg/mL,> 64 µg/mL,>64 µg/mL,> 64 µg/mL,64 µg/mL,16 µg/mL,,,
"CCOC(=O)C1(Cn2ncc3nc(NCc4ccc(Cl)c(Cl)c4)[nH]c(=O)c32)CCNCC1.Cl [Compound 194, ethyl 4-((5-((3,4-dichlorobenzyl)amino)-7-oxo-6,7-dihydro-1H-pyrazolo[4,3-d]pyrimidin-1-yl)methyl)piperidine-4-carboxylate hydrochloride]",32 µg/mL,16 µg/mL,> 64 µg/mL,> 64 µg/mL,64 µg/mL,64 µg/mL,32 µg/mL,8 µg/mL,,,
"CN1CCN(CCn2ncc3nc(NCc4ccc(Cl)c(Cl)c4)[nH]c(=O)c32)CC1 [Compound 58, 5-((3,4-Dichlorobenzyl)amino)-1-(2-(4-methylpiperazin-1-yl)ethyl)-1H-pyrazolo[4,3-d]pyrimidin-7(6H)-one]",4 µg/mL,4 µg/mL,8 µg/mL,> 64 µg/mL,>64 µg/mL,16 µg/mL,8 µg/mL,2 µg/mL,,,
"COc1cc(CNc2nc3cnn(C)c3c(=O)[nH]2)ccc1Cl [Compound 34, 5-((4-Chloro-3-methoxybenzyl)amino)-1-methyl-1H-pyrazolo[4,3-d]pyrimidin-7(6H)-one]",> 64 µg/mL,64 µg/mL,> 64 µg/mL,> 64 µg/mL,>64 µg/mL,> 64 µg/mL,> 64 µg/mL,> 64 µg/mL,,,
"O=c1[nH]c(NCc2ccc(Cl)c(Cl)c2)nc2cnn(C[C@H]3NC[C@H](O)[C@@H](O)[C@@H]3O)c12 [Compound 96, 5-((3,4-Dichlorobenzyl)amino)-1-(((2R,3R,4R,5 S)-3,4,5-trihydroxypiperidin-2-yl)methyl)-1H-pyrazolo[4,3-d]pyrimidin-7(6H)-one]",64 µg/mL,64 µg/mL,> 64 µg/mL,> 64 µg/mL,32 µg/mL,> 64 µg/mL,> 64 µg/mL,> 64 µg/mL,,,
"O=c1[nH]c(NCc2ccc(Cl)c(Cl)c2)nc2cnn(CCOC3CCOCC3)c12 [Compound 108, 5-((3,4-Dichlorobenzyl)amino)-1-(2-((tetrahydro-2H-pyran-4-yl)oxy)ethyl)-1H-pyrazolo[4,3-d]pyrimidin-7(6H)-one]",,4 µg/mL,,> 64 µg/mL,>64 µg/mL,4 µg/mL,8 µg/mL,2 µg/mL,,4/2,8/4
"Cn1nc(C(=O)O)c2nc(NCc3ccc(Cl)c(Cl)c3)[nH]c(=O)c21 [Compound 41, 5-((3,4-dichlorobenzyl)amino)-1-methyl-7-oxo-6,7-dihydro-1H-pyrazolo[4,3-d]pyrimidine-3-carboxylic acid]",> 64 µg/mL,> 64 µg/mL,> 64 µg/mL,> 64 µg/mL,>64. ug/ml,> 64 µg/mL,> 64 µg/mL,> 64 µg/mL,,,
"Cc1ccnc(C(=O)N2CCC(n3ncc4nc(NCc5ccc(Cl)c(Cl)c5)[nH]c(=O)c43)CC2)c1.Cl [Compound 264, 5-((3,4-Dichlorobenzyl)amino)-1-(1-(4-methylpicolinoyl)piperidin-4-yl)-1H-pyrazolo[4,3-d]pyrimidin-7(6H)-one hydrochloride]",1 µg/mL,4 µg/mL,2 µg/mL,> 64 µg/mL,>64 µg/mL,4 µg/mL,4 µg/mL,1 µg/mL,,,
